Structures can show the parent of a compound that is named as a salt.
Tests used:
Assay type in all cases: biochemical
recombinant human VAP-1 = target: T1, recombinant human VAP-1 (Homo sapiens, UniProt Q16853); experiment: Activity on recombinant human VAP-1, HRP-coupled Amplex Red hydrogen peroxide assay; conditions: substrate 1 mM benzylamine; compound incubated with enzyme at 37° C. for 30 minutes; pH 7.4; read-out: Inhibitory Activity (IC50, nM) human VAP-1
T1 construct: purchased R&D systems
T1 sequence (Q16853 1-763): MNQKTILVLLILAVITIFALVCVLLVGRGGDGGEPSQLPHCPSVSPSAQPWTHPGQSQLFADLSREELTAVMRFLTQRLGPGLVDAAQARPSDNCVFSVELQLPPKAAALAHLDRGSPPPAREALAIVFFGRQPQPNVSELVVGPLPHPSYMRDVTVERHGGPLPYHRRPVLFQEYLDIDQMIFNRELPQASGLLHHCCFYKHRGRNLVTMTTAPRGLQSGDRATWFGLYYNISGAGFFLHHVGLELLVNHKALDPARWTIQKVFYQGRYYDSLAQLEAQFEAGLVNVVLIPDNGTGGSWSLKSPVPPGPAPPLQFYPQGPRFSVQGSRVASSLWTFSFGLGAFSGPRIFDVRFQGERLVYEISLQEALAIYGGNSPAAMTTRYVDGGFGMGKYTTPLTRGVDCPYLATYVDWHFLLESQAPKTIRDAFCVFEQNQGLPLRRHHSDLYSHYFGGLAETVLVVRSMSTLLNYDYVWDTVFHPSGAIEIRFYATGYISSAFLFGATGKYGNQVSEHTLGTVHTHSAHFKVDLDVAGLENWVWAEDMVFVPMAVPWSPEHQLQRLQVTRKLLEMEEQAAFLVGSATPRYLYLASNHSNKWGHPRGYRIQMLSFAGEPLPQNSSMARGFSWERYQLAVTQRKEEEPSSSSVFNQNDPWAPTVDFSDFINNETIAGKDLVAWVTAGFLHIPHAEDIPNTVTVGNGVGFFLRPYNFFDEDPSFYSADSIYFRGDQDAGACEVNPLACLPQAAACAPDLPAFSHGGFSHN
Summary of the method: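 Enzyme in 50 mM sodium phosphate pH 7.4 preincubated with compound 30 min at 37 °C, then 1 mM benzylamine, 200 µM Amplex Red and 1 U/mL HRP added. H2O2-derived resorufin fluorescence (ex 544/em 590 nm) followed over 1–2 h; signal-rate decrease versus DMSO control, 8-point curve, four-parameter logistic IC50.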

[1] = target: T2, recombinant human MAO-A (monoamine oxidase-A) (Homo sapiens, UniProt P21397); experiment: Activity on recombinant human MAO-A, method similar to the VAP-1 assay; conditions: substrate 0.5 mM tyramine; read-out: Inhibitory Activity (IC50, nM) MAO-A
T2 construct: purchased Sigma-Aldrich
T2 sequence (P21397 1-527): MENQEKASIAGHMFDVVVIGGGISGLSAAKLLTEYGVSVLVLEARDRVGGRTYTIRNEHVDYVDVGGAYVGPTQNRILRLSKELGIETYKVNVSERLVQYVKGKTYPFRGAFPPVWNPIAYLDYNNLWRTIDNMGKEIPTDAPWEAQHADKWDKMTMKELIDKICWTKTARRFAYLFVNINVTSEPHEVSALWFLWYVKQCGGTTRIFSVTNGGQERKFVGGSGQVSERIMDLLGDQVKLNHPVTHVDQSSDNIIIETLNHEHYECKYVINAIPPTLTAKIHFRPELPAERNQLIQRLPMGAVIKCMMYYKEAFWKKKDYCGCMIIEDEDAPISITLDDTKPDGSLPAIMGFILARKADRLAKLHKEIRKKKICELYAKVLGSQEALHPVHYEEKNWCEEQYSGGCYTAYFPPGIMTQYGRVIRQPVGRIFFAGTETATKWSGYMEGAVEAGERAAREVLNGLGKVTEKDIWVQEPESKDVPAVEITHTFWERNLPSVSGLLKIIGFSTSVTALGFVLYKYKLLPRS
Summary of the method: (§1)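 Enzyme preincubated with compound 30 min at 37 °C in 50 mM sodium phosphate pH 7.4, final DMSO below 1%. Substrate was 0.5 mM tyramine for MAO-A and 1 mM benzylamine for MAO-B, with 200 uM Amplex Red and 1 U/mL HRP. H2O2-coupled resorufin fluorescence (ex 544/em 590) followed over 1–2 h; 8-point 4-parameter IC50.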

[2] = target: T3, recombinant human MAO-B (monoamine oxidase-B) (Homo sapiens, UniProt P27338); experiment: Activity on recombinant human MAO-B, method similar to the VAP-1 assay; conditions: substrate 1 mM benzylamine; read-out: Inhibitory Activity (IC50, nM) MAO-B
T3 construct: purchased Sigma-Aldrich
T3 sequence (P27338 1-520): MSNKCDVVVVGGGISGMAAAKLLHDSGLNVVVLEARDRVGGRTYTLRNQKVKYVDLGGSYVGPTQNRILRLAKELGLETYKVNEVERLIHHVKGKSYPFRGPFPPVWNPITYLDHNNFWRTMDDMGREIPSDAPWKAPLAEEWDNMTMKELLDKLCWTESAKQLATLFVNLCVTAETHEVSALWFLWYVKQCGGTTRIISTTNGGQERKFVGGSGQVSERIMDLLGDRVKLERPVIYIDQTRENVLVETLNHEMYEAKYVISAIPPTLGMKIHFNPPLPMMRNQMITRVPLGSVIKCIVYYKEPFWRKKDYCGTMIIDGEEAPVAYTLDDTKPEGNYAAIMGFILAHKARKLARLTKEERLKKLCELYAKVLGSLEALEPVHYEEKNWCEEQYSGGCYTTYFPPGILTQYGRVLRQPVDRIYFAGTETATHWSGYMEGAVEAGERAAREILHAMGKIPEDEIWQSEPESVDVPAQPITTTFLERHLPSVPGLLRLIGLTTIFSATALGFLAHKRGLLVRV
Summary of the method: as §1

[3] = target: T4, recombinant human DAO (diamine oxidase) (Homo sapiens, UniProt P19801); experiment: Activity on recombinant human DAO, method similar to the VAP-1 assay; conditions: substrate 1 mM putrescine; read-out: Inhibitory Activity (IC50, nM) DAO
T4 construct: purchased R&D systems
T4 sequence (P19801 20-751): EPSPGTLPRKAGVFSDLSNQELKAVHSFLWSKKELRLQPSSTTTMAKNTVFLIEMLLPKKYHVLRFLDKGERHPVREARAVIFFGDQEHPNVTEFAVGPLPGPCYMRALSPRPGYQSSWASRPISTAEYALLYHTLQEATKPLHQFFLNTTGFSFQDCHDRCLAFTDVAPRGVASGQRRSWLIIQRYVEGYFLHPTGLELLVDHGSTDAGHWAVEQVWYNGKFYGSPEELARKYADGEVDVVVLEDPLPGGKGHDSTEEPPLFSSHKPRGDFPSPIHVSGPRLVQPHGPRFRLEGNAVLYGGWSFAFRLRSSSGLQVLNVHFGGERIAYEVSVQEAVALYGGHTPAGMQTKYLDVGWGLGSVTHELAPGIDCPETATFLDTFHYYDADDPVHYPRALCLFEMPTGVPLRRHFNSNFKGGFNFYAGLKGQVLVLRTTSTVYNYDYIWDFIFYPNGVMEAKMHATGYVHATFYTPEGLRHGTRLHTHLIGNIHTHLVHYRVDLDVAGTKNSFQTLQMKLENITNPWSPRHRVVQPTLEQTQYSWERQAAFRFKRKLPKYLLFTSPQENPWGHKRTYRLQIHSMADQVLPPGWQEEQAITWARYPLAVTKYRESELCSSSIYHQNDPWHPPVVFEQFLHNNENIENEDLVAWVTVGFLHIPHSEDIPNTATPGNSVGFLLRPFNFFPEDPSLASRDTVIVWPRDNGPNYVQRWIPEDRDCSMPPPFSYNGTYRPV
Summary of the method: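 Inhibition of recombinant human diamine oxidase (DAO, R&D systems) was assessed by the same approach as the VAP-1 assay, using 1 mM putrescine as substrate. Hydrogen peroxide formed was detected through an HRP-coupled Amplex Red reaction yielding fluorescent resorufin, read at 544 nm excitation and 590 nm emission. IC50 values came from four-parameter logistic fitting in GraphPad Prism.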

| IC50 (recombinant human VAP-1) [nM] | IC50 [1] [nM] | IC50 [2] [nM] | IC50 [3] [nM] | SMILES |
| --- | --- | --- | --- | --- |
| 0.6 | 4400 | 180 | 1700 | NC/C(=C\F)Cn1ncn(Cc2ccc(/C=C/c3ccc(O)cc3)s2)c1=O [Example 116, 2-[(2E)-2-(aminomethyl)-3-fluoroprop-2-en-1-yl]-4-(5-[(E)-2-(4-hydroxyphenyl)ethenyl]thiophen-2-ylmethyl)-2,4-dihydro-3H-1,2,4-triazol-3-one hydrochloride] |
| 0.4 | > 100000 | 4200 | 40 | CSc1ncc(-c2ccc(Cn3cnn(C/C(=C/F)CN)c3=O)s2)cn1 [Example 56, 2-[(2E)-2-(aminomethyl)-3-fluoroprop-2-en-1-yl]-4-(5-[2-(methylsulfanyl)pyrimidin-5-yl]thiophen-2-ylmethyl)-2,4-dihydro-3H-1,2,4-triazol-3-one hydrochloride] |
| 1.4 | > 100000 | 390 | 1400 | NC/C(=C\F)Cn1ncn(Cc2ccc(C#Cc3cnc4c(c3)OCCN4)s2)c1=O [Example 137, 2-[(E)-2-(aminomethyl)-3-fluoro-allyl]-4-[[5-[2-(3,4-dihydro-2H-pyrido[3,2-b][1,4]oxazin-7-yl)ethynyl]-2-thienyl]methyl]-1,2,4-triazol-3-one] |
| 1.4 | > 100000 | 2600 | 1700 | CC(C)n1cc(-c2ccc(Cn3cnn(C/C(=C/F)CN)c3=O)s2)ccc1=O [Example 143, 5-[5-({1-[(2E)-2-(aminomethyl)-3-fluoroprop-2-en-1-yl]-5-oxo-1,5-dihydro-4H-1,2,4-triazol-4-yl}methyl)thiophen-2-yl]-1-(propan-2-yl)pyridin-2(1H)-one] |
| 4.9 | 13000 | 3500 | 4400 | NC/C(=C\F)Cn1ncn(Cc2ccc(-c3cn[nH]c3)s2)c1=O [Example 152, 2-[(2E)-2-(aminomethyl)-3-fluoroprop-2-en-1-yl]-4-{[5-(1H-pyrazol-4-yl)thiophen-2-yl]methyl}-2,4-dihydro-3H-1,2,4-triazol-3-one] |
| 0.8 | > 100000 | 600 | 790 | NC/C(=C\F)Cn1ncn(Cc2ccc(-c3cccc(-c4nnc[nH]4)c3)s2)c1=O [Example 33, 2-[(2E)-2-(aminomethyl)-3-fluoroprop-2-en-1-yl]-4-(5-[3-(4H-1,2,4-triazol-3-yl)phenyl]thiophen-2-ylmethyl)-2,4-dihydro-3H-1,2,4-triazol-3-one] |
| 4.4 | > 100000 | > 100000 | 490 | NC/C(=C\F)Cn1ncn(Cc2ccc(-c3ccc(CN4CCOCC4)nc3)s2)c1=O [Example 145, 2-[(2E)-2-(aminomethyl)-3-fluoroprop-2-en-1-yl]-4-({5-[6-(morpholin-4-ylmethyl)pyridin-3-yl]thiophen-2-yl}methyl)-2,4-dihydro-3H-1,2,4-triazol-3-one] |
| 3.2 | > 100000 | 250 | 250 | Cn1nc(C(F)(F)F)cc1-c1ccc(Cn2cnn(C/C(=C/F)CN)c2=O)s1 [Example 162, 2-[(2E)-2-(aminomethyl)-3-fluoroprop-2-en-1-yl]-4-({5-[1-methyl-3-(trifluoromethyl)-1H-pyrazol-5-yl]thiophen-2-yl}methyl)-2,4-dihydro-3H-1,2,4-triazol-3-one] |
| 0.9 | > 100000 | 950 | 310 | CNc1ncc2cc(-c3ccc(Cn4cnn(C/C(=C/F)CN)c4=O)s3)ccc2n1 [Example 112, 2-[(2E)-2-(aminomethyl)-3-fluoroprop-2-en-1-yl]-4-(5-[2-(methylamino)quinazolin-6-yl]thiophen-2-ylmethyl)-2,4-dihydro-3H-1,2,4-triazol-3-one hydrochloride] |
| 3 | > 100000 | 190 | 3100 | NC/C(=C\F)Cn1ncn(Cc2ccc(-c3ccc(OC(F)F)cc3)s2)c1=O [Example 170, 2-[(2E)-2-(aminomethyl)-3-fluoroprop-2-en-1-yl]-4-({5-[4-(difluoromethoxy)phenyl]thiophen-2-yl}methyl)-2,4-dihydro-3H-1,2,4-triazol-3-one] |
| 1.3 | 93000 | 270 | 1200 | NC/C(=C\F)Cn1ncn(Cc2ccc(/C=C/c3ccc(F)cc3)s2)c1=O [Example 117, 2-[(2E)-2-(aminomethyl)-3-fluoroprop-2-en-1-yl]-4-(5-[(E)-2-(4-fluorophenyl)ethenyl]thiophen-2-ylmethyl)-2,4-dihydro-3H-1,2,4-triazol-3-one hydrochloride] |
| 0.3 | > 100000 | 1700 | 320 | NC/C(=C\F)Cn1ncn(Cc2ccc(-c3ccc4c(c3)SCC(=O)N4)s2)c1=O [Example 85, 7-[5-[[1-[(E)-2-(aminomethyl)-3-fluoro-allyl]-5-oxo-1,2,4-triazol-4-yl]methyl]-2-thienyl]-4H-1,4-benzothiazin-3-one hydrochloride] |
